Converted amounts (≈) assume the structure as drawn. The source made the active and inactive calls. The rule behind the calls is not given here.
Legend:
Toll-like receptor 7 [1] = molecular target: T1, Toll-like receptor 7 (Homo sapiens, UniProt Q9NYK1); assay: Agonist activity at TLR7 in human whole blood assessed as induction of IFNalpha production after 20 hrs by electrochemiluminescence assay; assay type: tissue-based
T1 sequence (Q9NYK1 whole entry): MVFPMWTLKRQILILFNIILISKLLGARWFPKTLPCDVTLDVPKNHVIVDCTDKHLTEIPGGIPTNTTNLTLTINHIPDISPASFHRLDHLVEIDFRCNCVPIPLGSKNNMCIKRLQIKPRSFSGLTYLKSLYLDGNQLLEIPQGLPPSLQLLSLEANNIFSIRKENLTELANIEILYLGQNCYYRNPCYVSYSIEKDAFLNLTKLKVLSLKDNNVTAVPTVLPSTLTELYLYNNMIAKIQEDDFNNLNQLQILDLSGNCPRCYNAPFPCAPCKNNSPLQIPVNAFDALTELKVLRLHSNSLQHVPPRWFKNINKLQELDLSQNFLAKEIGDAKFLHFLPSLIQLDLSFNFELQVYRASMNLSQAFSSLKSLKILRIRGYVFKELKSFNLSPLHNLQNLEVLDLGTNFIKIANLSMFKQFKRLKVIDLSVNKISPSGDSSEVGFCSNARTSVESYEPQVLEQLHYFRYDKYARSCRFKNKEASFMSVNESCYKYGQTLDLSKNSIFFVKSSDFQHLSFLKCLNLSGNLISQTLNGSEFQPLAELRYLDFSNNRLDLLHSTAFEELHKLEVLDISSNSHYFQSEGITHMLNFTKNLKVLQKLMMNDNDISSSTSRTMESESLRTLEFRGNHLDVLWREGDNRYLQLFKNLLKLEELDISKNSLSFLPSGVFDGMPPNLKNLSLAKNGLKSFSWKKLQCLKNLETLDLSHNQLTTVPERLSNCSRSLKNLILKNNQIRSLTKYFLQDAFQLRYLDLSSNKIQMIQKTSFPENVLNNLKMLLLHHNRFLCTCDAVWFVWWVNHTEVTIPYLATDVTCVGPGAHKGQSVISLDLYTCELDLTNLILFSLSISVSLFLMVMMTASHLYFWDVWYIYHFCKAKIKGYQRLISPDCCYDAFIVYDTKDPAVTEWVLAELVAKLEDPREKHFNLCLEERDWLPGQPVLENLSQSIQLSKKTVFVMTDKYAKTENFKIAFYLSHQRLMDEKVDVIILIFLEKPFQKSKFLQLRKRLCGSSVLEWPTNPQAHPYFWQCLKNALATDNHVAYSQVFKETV

Toll-like receptor 7 [2] = molecular target: T1, Toll-like receptor 7; assay: Agonist activity at TLR7 in human PBMC assessed as TNF-alpha production after 24 hrs by electrochemiluminescence assay; assay type: cell-based
[3] = molecular target: T2, Toll-like receptor 7 (Macaca fascicularis) (UniProt B3Y652); assay: In vivo target occupancy at TLR7 in cynomolgus monkey assessed as fold increase in OAS3 mRNA expression in nasal scrape at 30 ng/kg administered intranasally incubated for 24 hrs by TaqMan analysis (reference value: 0.9); assay type: functional
T2 sequence (whole entry): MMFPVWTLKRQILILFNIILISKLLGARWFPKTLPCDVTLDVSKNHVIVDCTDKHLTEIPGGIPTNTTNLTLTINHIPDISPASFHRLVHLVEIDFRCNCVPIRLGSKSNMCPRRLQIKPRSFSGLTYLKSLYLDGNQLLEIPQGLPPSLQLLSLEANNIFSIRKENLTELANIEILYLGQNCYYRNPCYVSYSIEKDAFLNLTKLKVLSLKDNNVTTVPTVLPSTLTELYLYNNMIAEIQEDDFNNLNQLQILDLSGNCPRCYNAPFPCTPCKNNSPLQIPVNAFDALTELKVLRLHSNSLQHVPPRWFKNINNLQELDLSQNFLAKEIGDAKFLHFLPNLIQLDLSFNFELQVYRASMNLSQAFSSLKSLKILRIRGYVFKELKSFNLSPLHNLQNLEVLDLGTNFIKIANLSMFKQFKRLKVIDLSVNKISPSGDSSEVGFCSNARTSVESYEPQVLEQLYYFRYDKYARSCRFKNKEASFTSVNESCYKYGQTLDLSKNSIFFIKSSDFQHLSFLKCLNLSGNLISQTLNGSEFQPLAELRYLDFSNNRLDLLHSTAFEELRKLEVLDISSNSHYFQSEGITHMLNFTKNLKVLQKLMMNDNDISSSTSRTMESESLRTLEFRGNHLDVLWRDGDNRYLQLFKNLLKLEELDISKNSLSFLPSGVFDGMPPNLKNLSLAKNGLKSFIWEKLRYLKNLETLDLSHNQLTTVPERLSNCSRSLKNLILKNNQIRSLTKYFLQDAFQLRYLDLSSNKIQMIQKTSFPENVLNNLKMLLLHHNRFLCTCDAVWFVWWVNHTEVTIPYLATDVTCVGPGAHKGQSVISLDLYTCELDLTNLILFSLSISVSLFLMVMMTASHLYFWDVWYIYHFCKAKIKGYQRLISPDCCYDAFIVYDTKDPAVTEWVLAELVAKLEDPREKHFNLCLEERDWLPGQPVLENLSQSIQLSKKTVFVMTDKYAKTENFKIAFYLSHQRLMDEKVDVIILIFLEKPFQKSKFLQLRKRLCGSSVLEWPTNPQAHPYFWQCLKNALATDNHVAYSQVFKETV

Cynomolgus monkey [4] = assay: Increase in TNF-alpha level in cynomolgus monkey serum at 3000 ng/kg, administered intranasally after 6 hrs; assay type: functional, organism-based; settings: Macaca fascicularis
[5] = molecular target: T2, Toll-like receptor 7 (Macaca fascicularis); assay: In vivo target occupancy at TLR7 in cynomolgus monkey assessed as fold increase in OAS3 mRNA expression in nasal scrape at 3 ng/kg administered intranasally incubated for 24 hrs by TaqMan analysis (reference value: 0.9); assay type: functional
[6] = Bioavailability in rat after intranasal administration; assay type: ADME, organism-based; settings: in vivo, inhaled or intranasal
[7] = Solubility of the compound at pH-7; assay type: physicochemical
[8] = Toxicity in mouse assessed as dermal irritancy at 1000 ug/ml administered intranasally after 4 hrs; settings: in vivo, inhaled_or_intranasal, dose 1000 µg/ml
Cynomolgus monkey [9] = assay: Increase in IP-10 level in cynomolgus monkey serum at 30 ng/kg, administered intranasally after 6 hrs; assay type: functional, organism-based; settings: Macaca fascicularis
PBMC [10] = assay: Immunomodulatory activity in human PBMC assessed as reduction in timothy grass induced IL-13 level after 6 days; assay type: functional, cell-based; settings: dose 0.01-10000 nM, time 6.0 day
Mus musculus = assay: Increase in IP-10 level in intranasally dosed BALB/c mouse nasal lavage after 6 hrs; assay type: functional, organism-based
[11] = molecular target: T2, Toll-like receptor 7 (Macaca fascicularis); assay: In vivo target occupancy at TLR7 in cynomolgus monkey assessed as fold increase in OAS2 mRNA expression in nasal scrape at 30 ng/kg administered intranasally incubated for 24 hrs by TaqMan analysis (reference value: 1); assay type: functional
[12] = Oral bioavailability in rat; assay type: ADME, organism-based; settings: in vivo
PBMC [13] = assay: Immunomodulatory activity in human PBMC assessed as IFNalpha production incubated for 6 days in presence of allergen house dust mite; assay type: functional, cell-based; settings: time 6.0 day
[14] = molecular target: T2, Toll-like receptor 7 (Macaca fascicularis); assay: In vivo target occupancy at TLR7 in cynomolgus monkey assessed as fold increase in IFIT2 mRNA expression in nasal scrape at 30 ng/kg administered intranasally incubated for 24 hrs by TaqMan analysis (reference value: 2.1); assay type: functional

CCC[C@H](C)Oc1nc(N)c2[nH]c(=O)n(CCCCCN3CCCCC3)c2n1 [GSK-2245035] showed an EC50 (Toll-like receptor 7 [1]) of 0.891 nM, an EC50 (Toll-like receptor 7 [2]) of 316 nM and a fold change (FC) [3] of 101. For the same compound, the Activity (Cynomolgus monkey [4]) was “inactive”, the fold change (FC) [5] was 86.3 and the bioavailability [6] was 12%. The solubility [7] was 11 mg/mL (≈ 28.2 mM), the Activity [8] was “Non-Toxic” and the Activity (Cynomolgus monkey [9]) was “Active”. The Activity (PBMC [10]) was “Dose-Dependent Effect”, the Activity (Mus musculus) was “Active” and the fold change (FC) [11] was 180. The bioavailability [12] was 1%, the Activity (PBMC [13]) was “Active” and the fold change (FC) [14] was 124.

From ChEMBL document CHEMBL5252515, “Discovery of 6-Amino-2-{[(1S)-1-methylbutyl]oxy}-9-[5-(1-piperidinyl)pentyl]-7,9-dihydro-8H-purin-8-one (GSK2245035), a Highly Potent and Selective Intranasal Toll-Like Receptor 7 Agonist for the Treatment of Asthma” (J Med Chem, 2016)
